This is an account of results in US8552018B2, “Substituted tricyclic compounds as protein kinase inhibitors” (Arizona Board of Regents on behalf of the University of …, priority 2003, dated 2013).

As usually defined, the IC50 is the concentration that gives 50% inhibition.

Assay type in all cases: cell-based
In experiment [1] the test system is GIST882 cell line. Description: Cancer cell cytotoxicity assay (sulforhodamine B). Conditions: for IC50: Homo sapiens, 96 h, GIST882, 4 days, read-out: IC50 c-kit GIST882. On the procedure:
To validate the hypothesis that the designed c-kit/PDGFR tyrosine kinase inhibitors mediate GIST882 cell killing and PDGFR-mediated cell killing of pancreatic cancer cell lines (CFPAC-1, PANC-1 and MIA PaCa-2), an in vitro cytotoxicity assay was performed. The GIST882 cell line used in this study has a c-kit gain-of-function mutation (K642E). […] First the cells were cultured. GIST882 cells were provided by Dr. Jonathan A. Fletcher (Dana-Farber Cancer Institute, Boston, Mass.). PANC-1 and MIAPaCa-2 cells were provided by Dr. Daniel Von Hoff (Arizona Cancer Center, Tucson, Ariz.). […] All the cell lines were incubated in a humidified incubator at 37° C. with 5% CO2 atmosphere.
(§1) After incubation for 4 days at 37° C. in a humidified incubator, the cells were fixed with 10% Trichloroacetic acid solution (Catalog No. 490-10, Sigma). Subsequently, they were labeled with 0.04% Sulforhodamine B (S9012, Sigma) in 1% acetic acid. After multiple washes to remove excess dye, 100 μl of 50 mM Tris solution was added to each well in order to dissolve the dye. The absorbance of each well was read on a plate reader (Wallac Vector^2, PerkinElmer) at the wavelength of 570 nm. Data were expressed as the percentage of survival of control calculated from the absorbance corrected for background absorbance. The surviving percent of cells was determined by dividing the mean absorbance values of the […] by the mean absorbance values of the control and multiplying by 100.

Another experiment concerns MIAPaCa-2 cells. Kind of experiment: Cancer cell cytotoxicity assay (sulforhodamine B). Conditions: Homo sapiens, MIA PaCa-2, 96 h; MIAPaCa-2, 4 days; read-out: IC50 PDGFR MIAPaCa. The procedure: (§2) To validate the hypothesis that the designed c-kit/PDGFR tyrosine kinase inhibitors mediate GIST882 cell killing and PDGFR-mediated cell killing of pancreatic cancer cell lines (CFPAC-1, PANC-1 and MIA PaCa-2), an in vitro cytotoxicity assay was performed. The GIST882 cell line used in this study has a c-kit gain-of-function mutation (K642E). The assay utilized the Cell Titer 965 Non-Radioactive Cell Proliferation Assay (Promega Corp., Madison, Wis.). First the cells were cultured. GIST882 cells were provided by Dr. Jonathan A. Fletcher (Dana-Farber Cancer Institute, Boston, Mass.). PANC-1 and MIAPaCa-2 cells were provided by Dr. Daniel Von Hoff (Arizona Cancer Center, Tucson, Ariz.). GIST882 cells were cultured in RPMI 1640 medium (Cat #21870-076, Invitrogen Corporation) supplemented with 300 mg/L L-glutamine, 100 unit/ml penicillin, 100 μg/ml streptomycin and 15% fetal bovine serum. PANC-1 and MIAPaCa-2 cells were maintained in RPMI 1640 medium (cat #10-040, Mediatech, Inc.) supplemented with 100 unit/ml penicillin, 100 μg/ml streptomycin and 10% fetal bovine serum. All the cell lines were incubated in a humidified incubator at 37° C. with 5% CO2 atmosphere.
as §1, with “Cells were plated at a density of 2000 to 10000 cells per well, depending on their growth rate, in 0.1 mL medium on day 0 in 96-well Falcon microtiter plates (#3072, Becton-Dickinson Labware, Lincoln Park, N.J.). On day 1, 10 μL of serial dilutions of the individual compounds were added to the plates in replicates of 4. After incubation” for “After incubation”

For the next experiment, the system named is PANC-1 cells. Kind of experiment: Cancer cell cytotoxicity assay (sulforhodamine B). Conditions: Homo sapiens, 96 h; PANC-1, 4 days; read-out: IC50 PDGFR PANC-1. The procedure:
as §2
as §1, with “Cells were plated at a density of 2000 to 10000 cells per well, depending on their growth rate, in 0.1 mL medium on day 0 in 96-well Falcon microtiter plates (#3072, Becton-Dickinson Labware, Lincoln Park, N.J.). On day 1, 10 μL of serial dilutions of the individual compounds were added to the plates in replicates of 4. After incubation” for “After incubation”

The test system of experiment [2] is GIST882 cell line. Kind of experiment: GIST882 cell growth assay (Cell-Titer-Glo). Conditions: for IC50: Homo sapiens, GIST882, 96 hours. On the procedure:
(§3) Briefly, cells are seeded into 96-well, tissue-culture treated, opaque white plates (Thermo Electron, Vantaa, Finland), at between 5000 and 7500 cells per well, depending on the speed of cell proliferation, in 100 μl of appropriate growth medium (determined by the ATCC). Cells are then exposed to the appropriate concentration of drug or an equal amount of DMSO (drug diluent) and allowed to grow in its presence for 96 hours. Following this, 100 μl of Cell-Titer-Glo reagent (Promega, Inc., Madison, Wis.) is added to each well. Plates are then shaken for 2 minutes at room temperature to allow for cell lysis and incubated for 10 minutes to stabilize the luminescent signal. Similar to the Kinase-Glo assay reagent, this reagent contains both luciferase enzyme and its substrate luciferin. Luciferase, activated by ATP in the cell lysate, catalyzes the conversion of luciferin to oxyluciferin, a reaction which produces light. The amount of light produced is proportionate to the amount of ATP in the cell lysate, which is itself proportional to cell number and gives an index of cellular proliferation.
as §3, with “Various compounds of the invention, including (IV-1-3) (also referred to as HPK16), (III-1-3) (also referred to as HPK56), (III-1-4) (also referred to as HPK57), (III-1-5) (also referred to as HPK59), and (II-2-7) (also referred to as HPK61) were tested for activity against GIST tumor cells using the GIST882 cell line. Briefly,” for “Briefly,”

Consider `COc1cc2ncnc(N3CCN(C(=S)Nc4ccc(S(=O)(=O)Nc5ncccn5)cc4)CC3)c2cc1OC` [HPK16, 4-(6,7-Dimethoxy-quinazolin-4-yl)-piperazine-1-carbothioic acid [4-(pyrimidin-2-ylsulfamoly)-phenyl]-amide], for which the IC50 with GIST882 cell line [1] was 50 µM; in the experiment on MIAPaCa-2 cells, above 50 µM; with PANC-1 cells, above 50 µM; with GIST882 cell line [2] it was 50 µM.
As for `S=C(NCc1ccc2c(c1)OCO2)N1CCN(c2ncnc3c2oc2ccccc23)CC1` [HPK56, 4-Benzo[4,5]furo[3,2-d]pyrimidin-4-yl-piperazine-1-carbothioic acid (benzo[1,3]dioxol-5-ylmethyl)-amide], in the experiment with GIST882 cell line [1] (GIST882, day 4), the “cells alive at day 4” value turned out to be 5%. In addition, the IC50 in the experiment with GIST882 cell line [1] was 1.6 µM; in the experiment with MIAPaCa-2 cells it was 2.1 µM; in the experiment with PANC-1 cells, 3 µM; in the experiment with GIST882 cell line [2], 1.6 µM. Further, the “inhibitory activity in GIST882 cell line (in words)” value in the experiment on GIST882 cell line [2] (FIG. 29, 96 hours) is “highest inhibitory activity”.
For the molecule `COc1cc2[nH]c3ncnc(N4CCN(C(=S)Nc5ccc(S(=O)(=O)Nc6ncccn6)cc5)CC4)c3c2cc1OC` [HPK62, 4-(6,7-Dimethoxy-9H-1,3,9-triaza-fluoren-4-yl)-piperazine-1-carbothioic acid [4-(pyrimidin-2-ylsulfamoyl)-phenyl]-amide], the 50% inhibitory concentration (IC50) is 28 µM in the experiment on GIST882 cell line [1], above 50 µM in the experiment with MIAPaCa-2 cells, above 50 µM in the experiment with PANC-1 cells and 28 µM in the experiment with GIST882 cell line [2].
